Experimental data: US20230026163A1, “ANTICANCER COMPOUND AND MEDICAL USE THEREOF” (ASCENTAWITS PHARMACEUTICALS, LTD., priority 2019, published 2023)
Read-outs that look alike come from different tables or passages of the source.

How the values were obtained:
[1] = system: H460 cell line; settings: test results in WO2016210175A1 and CN108024974A, cited from earlier work
[2] = system: H460 non-small cell lung cancer; settings: cited from earlier work
[3] = Plasma stability, mouse; type: in vitro ADME; settings: Mouse plasma, 5 μM, 37° C., after 30 minutes
Experimental: (§1) Frozen plasma was melted immediately in a water bath at 37° C. […] The supernatants were collected into new tubes, respectively. pH values of the plasma were checked and recorded. Note: a, no more 2 times melted plasma was used since the sample was received; b, the plasma in pH 7 to pH 8 was used.
(§2) 1 mM of working solution of the test compounds and the control compound, propantheline, were prepared in DMSO. 1 mM of working solution of the control compound in […] was prepared in acetonitrile. 4 μL of the working solutions were added to 796 μL of pre-incubated plasma respectively to achieve a final concentration of 5 μM. The final concentration of solvent was 0.5%.
(§3) […] The test was performed in duplicate. […] 50 μL of the labeled plasma was added to new tubes containing 300 μL of the quench solution of room temperature, i.e., the sample with a preparation time of 0. The samples were vortexed to mix for 5 minutes. […] 100 μL of the supernatant was transferred to new plates.

[4] = Plasma stability, human; type: in vitro ADME; settings: 5 μM, 37° C., after 30 minutes
Experimental: as §1, §2
Aliquots of 50 μL of labelled plasma were transferred to new tubes and incubated in a water bath at 37° C. at approximately 60 rpm for 2 hours. The test was performed in duplicate. […] 50 μL of the labeled plasma was added to new tubes containing 300 μL of the quench solution of room temperature, i.e., the sample with a preparation time of 0. The samples were vortexed to mix for 5 minutes. […] 100 μL of the supernatant was transferred to new plates.

[5] = Plasma stability, monkey; type: in vitro ADME; settings: 5 μM, 37° C., after 30 minutes
Experimental: as §1, §2, §3

[6] = Plasma stability, dog; type: in vitro ADME; settings: Dog plasma, 5 μM, 37° C., after 30 minutes
Experimental: as §1, §2, §3

[7] = Plasma stability, rat; type: in vitro ADME; settings: Rat plasma, 5 μM, 37° C., after 30 minutes
Experimental: as §1, §2, §3

[8] = biological target: T1, P-glycoprotein (Homo sapiens, UniProt P08183); experiment: in vitro; settings: MDCK-MDR1
T1 sequence (P08183 whole entry): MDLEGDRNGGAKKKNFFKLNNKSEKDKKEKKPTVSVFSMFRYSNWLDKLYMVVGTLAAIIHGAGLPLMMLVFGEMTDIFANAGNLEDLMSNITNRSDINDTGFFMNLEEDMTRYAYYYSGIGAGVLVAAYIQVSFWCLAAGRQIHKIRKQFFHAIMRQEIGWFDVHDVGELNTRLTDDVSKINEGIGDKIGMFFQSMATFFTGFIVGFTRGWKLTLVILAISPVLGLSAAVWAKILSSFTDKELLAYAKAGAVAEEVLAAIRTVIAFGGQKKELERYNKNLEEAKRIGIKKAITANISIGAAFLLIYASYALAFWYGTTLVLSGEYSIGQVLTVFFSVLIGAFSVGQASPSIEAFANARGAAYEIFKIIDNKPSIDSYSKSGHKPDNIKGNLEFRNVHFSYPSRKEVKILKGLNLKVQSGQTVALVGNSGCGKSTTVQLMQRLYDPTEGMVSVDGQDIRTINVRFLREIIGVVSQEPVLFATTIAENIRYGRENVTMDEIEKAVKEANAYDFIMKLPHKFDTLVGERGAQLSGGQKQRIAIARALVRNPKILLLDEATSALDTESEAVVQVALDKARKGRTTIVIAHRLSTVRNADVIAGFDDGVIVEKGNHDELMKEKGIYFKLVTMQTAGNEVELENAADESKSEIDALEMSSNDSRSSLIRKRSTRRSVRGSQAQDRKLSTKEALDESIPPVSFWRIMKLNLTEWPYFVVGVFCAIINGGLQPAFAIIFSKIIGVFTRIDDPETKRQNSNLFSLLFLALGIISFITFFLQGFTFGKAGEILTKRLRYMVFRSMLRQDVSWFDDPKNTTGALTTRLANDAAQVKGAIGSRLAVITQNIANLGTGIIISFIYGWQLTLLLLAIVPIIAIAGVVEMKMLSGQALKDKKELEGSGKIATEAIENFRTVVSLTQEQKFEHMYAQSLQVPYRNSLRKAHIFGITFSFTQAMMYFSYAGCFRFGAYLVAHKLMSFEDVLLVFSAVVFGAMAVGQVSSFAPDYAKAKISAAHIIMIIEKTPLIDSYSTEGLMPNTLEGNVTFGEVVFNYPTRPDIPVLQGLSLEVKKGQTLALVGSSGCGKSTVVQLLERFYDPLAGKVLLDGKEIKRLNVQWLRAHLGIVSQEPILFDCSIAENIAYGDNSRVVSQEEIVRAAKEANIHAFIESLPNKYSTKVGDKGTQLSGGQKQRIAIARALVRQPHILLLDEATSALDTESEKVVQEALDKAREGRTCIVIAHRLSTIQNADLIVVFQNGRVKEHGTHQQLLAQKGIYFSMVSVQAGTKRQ
Experimental: MDCKII-MDR1 cells were incubated in cell culture flasks. The incubator was set at 37° C., 5% CO2, and a guaranteed relative humidity of 95%. When the cells reached 70 to 90% confluence, the cells may be seeded to transwells.
50 μL of the cell suspensions were added to the apical chambers of each well of the 96-well transwells at a final seeding density of 5.45×10^5 cells/cm^2.
MDCKII-MDR1 cells may be fully confluent and differentiated after 4 to 8 days of incubation. At this time, the cells may be applied to penetration test. The monolayer membrane resistance was measured with a resistance meter (Millipore), and the resistance per well was recorded. After the test, the transwells were returned to the incubator.
The transwells with MDCKII-MDR1 cells were taken from the incubator. The cell monolayers were rinsed twice with buffer and incubated at 37° C. for 30 minutes.
The rate of the compounds from an apical end to a basolateral end was determined. 75 μL of the buffer containing the test sample was added to each well of the apical chambers (apical end), and 235 μL of the buffer was added to each well of the basolateral chambers (basolateral end).
The rate of the compounds transporting from the basolateral end to the apical end was determined. 75 μL of the buffer was added to the apical chambers (apical end), and 235 μL of the buffer containing the test sample was added to the basolateral chamber (basolateral end).
After the apical chambers and the basolateral chambers were combined respectively, the transwells were incubated at 37° C. for 2 hours.
After incubation, 50 μL of the sample from each well of the apical chambers and the basolateral chambers of the transwells was transferred to new sample tubes respectively. 200 μL of acetonitrile (100 nM of Alprazolam, 200 nM of Labetalol, 200 nM of caffeine, and 2 μM of Ketoprofen) as an internal standard was added to the sample tubes, vortexed for 10 minutes, and centrifuged at 3220 g for 30 minutes. 100 μL of the supernatant was taken and diluted with an equal volume of water for LC-MS/MS analysis. Each sample was incubated in triplicate.
Peak-areas were calculated from ion chromatography results. The apparent permeability coefficient (Papp, unit: cm/s×10-6) of the compounds was calculated by the following formula.
In the formula, VA was the volume of the solution at the acceptor end (Ap→B1 was 0.235 mL, and B1→Ap was 0.075 mL), Area was the membrane area (0.143 cm^2) of 96-well transwell, time was the incubation time (unit: s), [drug]acceptor referred to the drug concentration of the acceptor end after incubation, and [drug]initial,donor referred to the initial concentration of the donor end before incubation.
Efflux ratio was calculated with the following formula.
In the formula, Papp(B_A) was the apparent permeability coefficient from the basolateral end to the apical end, and Papp(A-B) was the apparent permeability coefficient from the apical end to the basolateral end.
The recovery rate was calculated with the following formula.
In the formula, VA was the solution volume of the acceptor end (unit: mL), VD was the solution volume of the donor end (unit: mL), [drug]acceptor referred to the drug concentration of the acceptor end after incubation, and [drug]initial,donor referred to the initial concentration of the donor end before incubation.

[9] = biological target: T1, P-glycoprotein; design: expressed in transfected cells; host or cells: MDCKII-MDR1 (MDCKII canine kidney cells); settings: cited from earlier work
[10] = system: H460 cell line; experiment: Cytotoxicity comparison of TH-302 and compound 01 on H460 at different test times; type: cell-based, human; settings: Homo sapiens, NCI-H460, 2 h, H460, exposure for 2 hours, air
Description: The cytotoxicity test results of TH-302 and compound 01 on H460 cell line under different test times in the same laboratory, the same operator, and the same experimental conditions.

[11] = system: AA8; experiment: Cytotoxicity on cell lines of different species: AA8; type: cell-based
[12] = system: H460; experiment: Cytotoxicity on cell lines of different species: H460; type: cell-based; settings: NCI-H460; H460, Human; exposure time: 72 h
[13] = system: H460 cell line; experiment: Hypoxia-dependent cytotoxicity experiment (2 hours exposure, air or N2, CTG); type: cell-based; settings: Homo sapiens, then 3 days
Experimental: To determine the effect of the compounds of the present disclosure on cancer cell proliferation, these compounds were tested for cancer cell anti-proliferative activity in a porous CTG-based assay. Cell growth was compared in the present (treatment groups) and the absence of the test compound. 10,000 cells/well/495 μL of medium was used to test the following cell line, a human tumor cell line of H460 non-small cell lung cancer. The cells were seeded on glass-inserts located in each well of 24-well plates with a density and medium as specified above. 24 hours later, the plates were divided into 2 groups, hypoxia (using N2) group and air group. TH-302 at the concentrations from 100, 10, 0.1 to 0.01 μM, and the test compounds at the concentrations from 10, 1, 0.1, 0.01, 0.001 to 0.0001 were added to each well (500 μL volume) of the treatment groups. The final DMSO concentration in each well was lower than or equal to 1%. The cells in the hypoxia group were incubated for 2 hours in an ELECTROTEK hypoxia workstation. The cells in the air group were incubated for 2 hours in a standard culture incubator. 2 hours later, the test compounds were removed from each well. The cells were washed with 500 μL of medium and incubated in 500 μL of fresh medium for 3 days. 3 days later, 200 μL of medium per well was discarded. 60 μL of CTG was added to the wells, and the plates were placed at room temperature for 15 minutes in the dark. 100 μL of medium from each well of the 24-well plates was transferred to 96-well plates. The chemiluminescence signal values were read with an M5 full-band multi-mode-function microplate reader, and integration=750 ms. The compounds of control 1 and control 2 were used as controls.

[14] = test results in WO2016210175A1 and CN108024974A

For `C[C@H](OP(=O)(N1CC1)N1CC1)c1ccc([N+](=O)[O-])cc1` [TH2566], the IC50 ([1]; read-out: N2: IC50) is listed as 23 µM, the IC50 ([1]; read-out: Normoxia: IC50) is listed as 0.1 µM and the IC50 [2, 14] is listed as 100 nM.

With `CC(C)[N+](C)(CCOC(=O)C1c2ccccc2Oc2ccccc21)C(C)C` [Propantheline, reference compound] the Remaining percentage [3] was 5.33%, the Remaining percentage [4] was 0.07% and the Remaining percentage [5] was 48.11%.

`CC[C@H](C)C(=O)O[C@H]1C[C@@H](C)C=C2C=C[C@H](C)[C@H](CC[C@@H]3C[C@@H](O)CC(=O)O3)[C@H]21` [Lovastatin, reference compound] showed a Remaining percentage [6] of 37.6% and a Remaining percentage [7] of 0.21%.

In the case of `C[C@@H](OP(=O)(N1CC1)N1CC1)c1ccc([N+](=O)[O-])cc1` [TH2565], the IC50 ([1]; read-out: N2: IC50) is listed as 18 µM, the IC50 ([1]; read-out: Normoxia: IC50) is listed as 0.1 µM and the IC50 [2, 14] is listed as 100 nM.

For `COc1cc2nc(N3CCN(C(=O)c4ccco4)CC3)nc(N)c2cc1OC` [Prazosin, reference compound], the “Papp (A-B)” value [8] was 28.47 10^−6, cm/s, the “Papp (B-A)” value [8] was 14.14 10^−6, cm/s and the Papp A→B at 2 h ([8]; dog) was 14 ×10⁻⁶ cm/s. For the same compound, the Papp B→A at 2 h ([8]; dog) was 28.2 ×10⁻⁶ cm/s and the “P-gp substrate (known / earlier data and literature)” value [9] was “known P-gp substrates”.

`Cn1c(COP(=O)(NCCBr)NCCBr)cnc1[N+](=O)[O-]` [Control 1, Evofosfamide, reference compound] showed an IC50 ([10]; Time 1) of 23 µM, an IC50 ([10]; Time 2) of 8 µM and an IC50 ([10]; Time 3) of 3.3 µM. The IC50 ([11]; CHO-AA8, AA8, Rat, exposure time: 72 h) was 830 µM, the “Multiple: Rat/Human” value ([11]; IC50 AA8 / IC50 H460) was 41.5 and the IC50 [12] was 20 µM. For the same compound, the IC50 ([2]; value from published literature (Meng et al., Mol Cancer Ther 2012)) was 800 nM, the IC50 ([13]; NCI-H460, H460, air, read-out: Normoxia: IC50) was 7.98 µM and the IC50 ([13]; NCI-H460, H460, hypoxia (N2), read-out: N2: IC50) was 0.0479 µM. For the same compound, the “P-gp substrate (known / earlier data and literature)” value [9] was “P-gp substrate”.
